The values that follow come from patent US5153180A, “Fluorinated nucleosides and process for treating retrovirus infections therewith” (priority 1990, dated 1992).

Data set [1] has as its target T1, HIV-associated reverse transcriptase (HIV-RT) (Human immunodeficiency virus type 1 group M subtype B, UniProt P04585).
T1 construct: HIV-associated reverse transcriptase (HIV-RT)
Put plainly: Inhibition of HIV-associated reverse transcriptase (polymerization of artificial templates). It is filed as biochemical. Details: efficacy against HIV-associated reverse transcriptase: dose or concentration left out as unconfirmed. Conditions: for IC50: read-out: ID50 HIV-RT. The text has this: At first the triphosphates of some compounds according to formula I were investigated for their ability to inhibit the polymerization of artificial templates (such as polyAoligodT and polyColigodG) catalyzed by HIV-associated reverse transcriptase (HIV-RT) according to the method described by A. D. Hoffman et al., Virology 147, 326, 1985. […] FdTTP, FdUTP and FdGTP are among the strongest inhibitors found so far for HIV-RT. In comparison the ID50 for 3'-azidothymidinetriphosphate was estimated under our conditions to be about […].

Data set [2] concerns the target T2, cellular DNA polymerase α (Bos taurus, UniProt A0AAA9TD94).
T2 construct: purified from calf thymus; from tissue; host or cells: calf thymus
T2 sequence (A0AAA9TD94 1-1441): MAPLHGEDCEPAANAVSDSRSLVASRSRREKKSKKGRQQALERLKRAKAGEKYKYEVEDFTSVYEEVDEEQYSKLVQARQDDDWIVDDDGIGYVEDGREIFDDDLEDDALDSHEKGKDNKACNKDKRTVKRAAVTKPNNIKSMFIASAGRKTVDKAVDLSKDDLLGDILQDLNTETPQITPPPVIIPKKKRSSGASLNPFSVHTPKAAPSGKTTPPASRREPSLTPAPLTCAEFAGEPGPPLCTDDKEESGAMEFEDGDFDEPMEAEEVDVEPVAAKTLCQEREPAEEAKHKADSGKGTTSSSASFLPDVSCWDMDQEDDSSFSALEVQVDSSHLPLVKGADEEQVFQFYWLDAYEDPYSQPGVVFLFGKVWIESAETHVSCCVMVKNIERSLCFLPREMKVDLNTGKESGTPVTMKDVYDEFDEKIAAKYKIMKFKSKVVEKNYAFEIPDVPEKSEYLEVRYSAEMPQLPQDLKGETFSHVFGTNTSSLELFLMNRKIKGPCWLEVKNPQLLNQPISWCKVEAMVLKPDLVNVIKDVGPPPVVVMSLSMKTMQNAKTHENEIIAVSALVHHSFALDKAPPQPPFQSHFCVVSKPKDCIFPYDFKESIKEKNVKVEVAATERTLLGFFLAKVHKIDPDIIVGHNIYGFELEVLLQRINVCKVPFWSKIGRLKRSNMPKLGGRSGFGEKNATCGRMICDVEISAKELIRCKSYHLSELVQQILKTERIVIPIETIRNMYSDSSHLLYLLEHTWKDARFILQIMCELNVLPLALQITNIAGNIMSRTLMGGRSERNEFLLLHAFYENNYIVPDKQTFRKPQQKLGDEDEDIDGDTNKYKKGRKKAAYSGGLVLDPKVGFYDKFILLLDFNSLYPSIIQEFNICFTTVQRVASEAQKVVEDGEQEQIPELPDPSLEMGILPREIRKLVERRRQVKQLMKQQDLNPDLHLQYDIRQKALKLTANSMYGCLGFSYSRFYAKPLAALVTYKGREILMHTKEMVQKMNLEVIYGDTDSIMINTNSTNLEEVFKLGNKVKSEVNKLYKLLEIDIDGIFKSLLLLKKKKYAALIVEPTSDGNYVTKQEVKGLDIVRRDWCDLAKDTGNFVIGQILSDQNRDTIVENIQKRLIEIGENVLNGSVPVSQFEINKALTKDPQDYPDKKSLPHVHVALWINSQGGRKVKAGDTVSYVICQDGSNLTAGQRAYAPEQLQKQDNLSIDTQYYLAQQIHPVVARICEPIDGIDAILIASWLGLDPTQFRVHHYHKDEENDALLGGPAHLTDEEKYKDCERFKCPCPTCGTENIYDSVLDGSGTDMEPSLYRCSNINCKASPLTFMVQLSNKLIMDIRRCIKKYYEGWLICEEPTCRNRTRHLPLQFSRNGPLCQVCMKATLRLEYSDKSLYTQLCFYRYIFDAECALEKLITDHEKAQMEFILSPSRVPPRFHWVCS
Put plainly: Effect on cellular DNA polymerase α. It counts as biochemical. Conditions: enzyme purified from calf thymus; read-out: ID50 cellular polymerase α. An excerpt:
(§1) The strong inhibiting effect of 3'-fluoro-substituted deoxynucleotides against HIV-reverse transcriptase can be utilized therapeutically only if the cellular DNA polymerases, especially the DNA polymerase α which is required for the replication of the cellular DNA, remain substantially unaffected. […] The ID50 values for the DNA polymerase β responsible for cellular DNA repair vary between 1,8-15 μm. Both enzymes cellular DNA polymerase α and β were purified from calf thymus and tested according to the method of E. Matthes et al., Biomed. Biochim. Acta 44. K63 (1985).

The target of data set [3] is T3, cellular DNA polymerase β (Bos taurus, UniProt Q27958).
T3 construct: purified from calf thymus; from tissue; host or cells: calf thymus
The data set can be described thus: Effect on cellular DNA polymerase β. It counts as biochemical. Particulars: enzyme purified from calf thymus; read-out: ID50 cellular polymerase β.
Description: as §1

For data set [4], the system named is HIV. The data set can be described thus: Inhibition of the cytopathic effect of HIV on MT-4 cells. It counts as cell-based. Conditions: MT-4 cells, 6 days of incubation; for EC50: Human immunodeficiency virus 1, MT4, 144 h, read-out: 50% antiviral dose (ED50). How it is done:
(§2) Under in vitro conditions immortalized T-lymphocytes can be killed within few days by the cytopathic effect of HIV. […] For this purpose about 20,000 MT-4 cells (Harada et al. Science 229, 563 (1985)) Were infected with HIV (titer: 0.04 m.o.i.) and incubated in the presence or absence of varying concentrations of compounds according to formula I, with 10% fetal calf serum (FCS) in 200 μl RPMI medium. After 6 days of incubation the viable cells were counted that were excluded from trypan blue staining.

Data set [5] is described as follows: in vitro. Conditions: human, mt-4 cells. The procedure: as §2
The target in data set [6] is T4, thymidine-phosphorylase from human spleen (Homo sapiens, UniProt P19971).
T4 construct: thymidine-phosphorylase from human spleen; from tissue; host or cells: human spleen
T4 sequence (P19971 11-482): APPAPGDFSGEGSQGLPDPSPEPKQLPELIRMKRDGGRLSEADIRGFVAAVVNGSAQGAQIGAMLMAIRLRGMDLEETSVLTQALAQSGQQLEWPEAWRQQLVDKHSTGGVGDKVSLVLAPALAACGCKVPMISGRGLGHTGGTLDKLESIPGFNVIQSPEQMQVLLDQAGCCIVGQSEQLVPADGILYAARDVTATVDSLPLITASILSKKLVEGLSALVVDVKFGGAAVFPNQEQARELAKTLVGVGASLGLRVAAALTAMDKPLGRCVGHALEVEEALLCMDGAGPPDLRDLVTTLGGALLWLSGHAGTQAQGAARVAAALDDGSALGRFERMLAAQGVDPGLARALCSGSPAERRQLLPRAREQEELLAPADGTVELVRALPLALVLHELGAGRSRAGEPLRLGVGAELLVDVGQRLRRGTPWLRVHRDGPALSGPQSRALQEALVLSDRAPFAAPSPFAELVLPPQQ
The data set can be described thus: Phosphorolytic cleavage by thymidine-phosphorylase. It counts as in vitro ADME. Conditions: for metabolised at 3 h, 1000 µM: 1 mM, within 3 hours, read-out: extent of cleavage by thymidine-phosphorylase. An excerpt:
Therefore FTdR, FddBrUrd and FddFUrd were investigated for their ability to be cleaved by thymidine-phosphorylase from human spleen.

[7] abbreviates: concentration required for 50% inhibition.

The structures appear in SMILES notation. Like-named read-outs stand apart in the source and are kept apart here. Bounds are passed on as bounds.

On to `CCc1cn([C@H]2C[C@H](F)[C@@H](COP(=O)(O)OP(=O)(O)OP(=O)(O)O)O2)c(=O)[nH]c1=O` [Compound F5EtdUTP, 2'-3'-dideoxy-3'-fluoro-5-ethyluridine-5'-triphphosphate], for which the values for the IC50 in data set [1] (setting [7]), in data set [2] and in data set [3] were 7500 nM, 10 µM and 4 µM, respectively.

Consider `Cc1cn([C@H]2C[C@H](N=[N+]=[N-])[C@@H](CO[P@](=O)(O)O[P@](=O)(O)OP(=O)(O)O)O2)c(=O)[nH]c1=O` [3'-azidothymidinetriphosphate, reference compound], for which the IC50 in data set [1] (estimated under our conditions) was approximately 50000 nM.

With `O=c1[nH]c(=O)n([C@H]2C[C@H](F)[C@@H](CO)O2)cc1Br` [FddBrUrd, 2'-3'-dideoxy-3'-fluoro-5-bromouridine], the EC50 in data set [4] worked out at 5 µM. In data set [5], this compound returned a cytotoxic concentration (CC50) at 144 h of 190 µM. The metabolised at 3 h, 1000 µM in data set [6] lay within 3 to 8%.

As to `Nc1ccn([C@@H]2O[C@H](CO)[C@@H](F)[C@@H]2O)c(=O)n1` [FaraC, 3'-deoxy-3'-fluoroarabinosylcytosine], the EC50 in data set [4] is more than 100 µM. This compound displayed a CC50 at 144 h in data set [5] of more than 100 µM.

Regarding `Cc1cn([C@H]2C[C@H](F)[C@@H](CO)O2)c(=O)nc1N` [FddMCyt, 2'-3'-dideoxy-3'-fluoromethylcytidine], in data set [4], the EC50 was 125 µM. In data set [5], the CC50 at 144 h came to 125 µM.

Consider `O=c1[nH]c(=O)n([C@@H]2O[C@H](CO)[C@@H](F)[C@@H]2O)cc1Br` [FaraBrU, 3'-deoxy-3'-fluoroarabinosyl-5-bromouracil], for which the EC50 in data set [4] is more than 100 µM. The compound further had a CC50 at 144 h in data set [5] of more than 100 µM.

Regarding `O=c1ccn([C@@H]2O[C@H](CO)[C@@H](F)[C@@H]2O)c(=O)[nH]1` [FaraU, 3'-deoxy-3'-fluoroarabinosyluracil], the EC50 in data set [4] was more than 500 µM. Further, in data set [5], the CC50 at 144 h was more than 500 µM.

`Cc1cn([C@H]2C[C@H](O)[C@@H](CO)O2)c(=O)[nH]c1=O` [thymidine, reference compound] had a metabolised at 2 h in data set [6] of 90%.

As for `Nc1nc(N)c2ncn([C@H]3C[C@H](F)[C@@H](CO)O3)c2n1` [FddDAPR, 2'-3'-dideoxy-3'-fluoro-2,6-diaminopurineriboside], in data set [4], the EC50 turned out to be 6 µM. The same compound returned a half-maximal cytotoxic concentration (CC50) at 144 h in data set [5] of 480 µM.

`CCc1cn([C@H]2C[C@H](F)[C@@H](CO)O2)c(=O)[nH]c1=O` [FddEtUrd, 2'-3'-dideoxy-3'-fluoro-5-ethyluridine]: in data set [4], the EC50 is more than 500 µM. The CC50 at 144 h in data set [5] is more than 500 µM.

In the case of `O=c1[nH]c(=O)n([C@H]2C[C@H](F)[C@@H](CO)O2)cc1F` [FddFUrd, 2'-3'-dideoxy-3'-fluoro-5-fluorouridine], the “50% antiviral dose (ED50)” value in data set [4] is on record as “not detectable”. The same compound gave a CC50 at 144 h in data set [5] of more than 200 µM. Besides, the metabolised at 3 h, 1000 µM in data set [6] lay in the range of 3 to 8%.

As for `N#Cc1cn([C@H]2C[C@H](F)[C@@H](CO)O2)c(=O)[nH]c1=O` [FddCNUrd, 2'-3'-dideoxy-3'-fluoro-5-cyanouridine], the “50% antiviral dose (ED50)” value in data set [4] was “not detectable”. In data set [5], this compound returned a CC50 at 144 h of more than 500 µM.

With `Nc1ncnc2c1ncn2[C@H]1C[C@H](F)[C@@H](CO)O1` [FddAdo, 2'-3'-dideoxy-3'-fluoroadenosine], in data set [4], the EC50 was more than 100 µM. For the same compound, the midpoint of cytotoxicity in data set [5], the CC50 at 144 h, lay at 75 µM.

With `Nc1ccn([C@H]2C[C@H](F)[C@@H](CO)O2)c(=O)n1` [FddCyt, 2'-3'-dideoxy-3'-fluorocytidine], the EC50 in data set [4] is 25 µM. In data set [5], this compound came in with a 50% cytotoxic concentration (CC50) at 144 h of 62 µM.

For `Nc1nc2c(ncn2[C@H]2C[C@H](F)[C@@H](COP(=O)(O)OP(=O)(O)OP(=O)(O)O)O2)c(=O)[nH]1` [FdGTP, 2'-3'-dideoxy-3'-fluoroguanosine-5'-triphosphate], the IC50 was 50 nM in data set [1] (setting [7]), more than 200 µM in data set [2] and 1.8 µM in data set [3].

Consider `O=c1ccn([C@H]2C[C@H](F)[C@@H](COP(=O)(O)OP(=O)(O)OP(=O)(O)O)O2)c(=O)[nH]1` [FdUTP, 2'-3'-dideoxy-3'-fluorouridine-5'-triphosphate], for which the IC50 in data set [1] (setting [7]) was 70 nM; in data set [2] it was more than 200 µM; in data set [3], 3 µM.

Turning to `Nc1nc2c(ncn2[C@H]2C[C@H](F)[C@@H](CO)O2)c(=O)[nH]1` [FddGuo, 2'-3'-dideoxy-3'-fluoroguanosine], the EC50 in data set [4] turned out to be 5 µM. Further, the half-maximal cytotoxic concentration (CC50) at 144 h in data set [5] was determined as 250 µM.

As to `O=c1[nH]c(=O)n([C@H]2C[C@H](F)[C@@H](COP(=O)(O)OP(=O)(O)OP(=O)(O)O)O2)cc1F` [Compound F5FdUTP, 2'-3'-dideoxy-3'-fluoro-5-fluorouridine-5'-triphosphate], the IC50 was 450 nM in data set [1] (setting [7]), more than 200 µM in data set [2] and 15 µM in data set [3].

In the case of `O=c1[nH]c(=O)n([C@H]2C[C@H](F)[C@@H](CO)O2)cc1CO` [FddHMUrd, 2'-3'-dideoxy-3'-fluoro-5-hydroxymethyluridine], the EC50 in data set [4] is more than 500 µM. Further, in data set [5], the 50% cytotoxic concentration (CC50) at 144 h was more than 500 µM.

Turning to `Cc1cn([C@H]2C[C@H](Cl)[C@@H](COP(=O)(O)OP(=O)(O)OP(=O)(O)O)O2)c(=O)[nH]c1=O` [3'-chloro-2',3'-dideoxythymidine triphosphate, reference compound], the “efficacy against HIV-associated reverse transcriptase” value in data set [1] is listed as “completely ineffective”.
